Columns and labels:
[1] = system: BV-2; assay: Anti-neuroinflammatory activity in mouse BV-2 cells assessed as inhibition of LPS-induced NO production incubated for 48 hrs by Griess reagent based assay; format: functional, cell-based; conditions: BV-2, 48 h
[2] = Cytotoxicity against mouse BV-2 cells assessed as cell viability by MTT assay; format: cell-based; set-up: concentration or dose not given beside the values; conditions: read-out: Activity

Row | Structure (SMILES) | IC50 [1] | viability [2]
1 | CC(=O)[C@@H]1CC[C@]2(C(=O)O)CC[C@]3(C)[C@H](CC[C@@H]4[C@@]5(C)CCC(=O)C(C)(C)[C@@H]5C[C@H](O)[C@]43C)[C@@H]12 | 53.9 µM | 106%
2 | C=C(C)[C@@H]1CC[C@]2(C(=O)O)CC[C@]3(C)[C@H](CC[C@@H]4[C@@]5(C)CCC(=O)C(C)(C)[C@@H]5C[C@H](O)[C@]43C)[C@@H]12 | 34.6 µM | 99.2%
3 | C=C(C)[C@@H]1CC[C@]2(C(=O)O)CC[C@]3(C)[C@H](CC[C@@H]4[C@@]5(C)CCC(=O)[C@@](C)(COC(C)=O)[C@@H]5C[C@H](O)[C@]43C)[C@@H]12 | 1.55 µM | 103%
4 | C=C(C)[C@@H]1CC[C@]2(C(=O)O)CC[C@]3(C)[C@H](CC[C@@H]4[C@@]5(C)CC(=O)[C@H](O)C(C)(C)[C@@H]5C[C@H](O)[C@]43C)[C@@H]12 | > 100 µM | 97.3%
5 | C=C(C)[C@@H]1CC[C@]2(C(=O)O)CC[C@]3(C)[C@H](C[C@H](O)[C@@H]4[C@@]5(C)CCC(=O)C(C)(C)[C@@H]5C[C@H](O)[C@]43C)[C@@H]12 | > 100 µM | 88.4%
6 | CC(=O)OC[C@H](C)[C@@H]1CC[C@]2(C(=O)O)CC[C@]3(C)[C@H](CC[C@@H]4[C@@]5(C)CCC(=O)C(C)(C)[C@@H]5C[C@H](O)[C@]43C)[C@@H]12 | 61.2 µM | 99.5%
7 | C=C(CO)[C@@H]1CC[C@]2(C(=O)O)CC[C@]3(C)[C@H](CC[C@@H]4[C@@]5(C)CCC(=O)C(C)(C)[C@@H]5C[C@H](O)[C@]43C)[C@@H]12 | 11.1 µM | 103%
8 | C=C(C)[C@@H]1C[C@@H](O)[C@]2(C(=O)O)CC[C@]3(C)[C@H](CC[C@@H]4[C@@]5(C)CCC(=O)C(C)(C)[C@@H]5C[C@H](O)[C@]43C)[C@@H]12 | 37.2 µM | 101%
9 | C=C(C)[C@@H]1CC[C@]2(C(=O)O)C[C@H](O)[C@]3(C)[C@H](CC[C@@H]4[C@@]5(C)CCC(=O)C(C)(C)[C@@H]5C[C@H](O)[C@]43C)[C@@H]12 | 93.7 µM | 101%
10 | C=C(COC(C)=O)[C@@H]1CC[C@]2(C(=O)O)C[C@H](O)[C@]3(C)[C@H](CC[C@@H]4[C@@]5(C)CCC(=O)C(C)(C)[C@@H]5CC[C@]43C)[C@@H]12 | 76.6 µM | 101%
11 | C=C(C)[C@@H]1CC[C@]2(C(=O)O)CC[C@]3(C)[C@H](CC[C@@H]4[C@@]5(C)CCC(=O)[C@@](C)(CO)[C@@H]5C[C@H](O)[C@]43C)[C@@H]12 | 15.6 µM | 110%
12 | C=C(C)[C@@H]1CC[C@]2(C(=O)O)C[C@H](O)[C@]3(C)[C@H](C[C@@H](O)[C@@H]4[C@@]5(C)CCC(=O)C(C)(C)[C@@H]5CC[C@]43C)[C@@H]12 | > 100 µM | 103%
13 | C=C(C)[C@@H]1CC[C@]2(C(=O)O)C[C@H](O)[C@]3(C)[C@H](CC[C@@H]4[C@@]5(C)CCC(=O)[C@@](C)(CO)[C@@H]5C[C@H](O)[C@]43C)[C@@H]12 | 58.3 µM | 105%
14 | C=C(C)[C@@H]1CC[C@]2(C(=O)O)C[C@H](O)[C@]3(C)[C@H](CC[C@@H]4[C@@]5(C)CCC(=O)[C@@](C)(COC(C)=O)[C@@H]5CC[C@]43C)[C@@H]12 | 42.4 µM | 102%
15 | C=C(COC(C)=O)[C@@H]1CC[C@]2(C(=O)O)CC[C@]3(C)[C@H](CC[C@@H]4[C@@]5(C)CCC(=O)C(C)(C)[C@@H]5C[C@H](O)[C@]43C)[C@@H]12 | 5.38 µM | 109%
16 | C=C(CO)[C@@H]1CC[C@]2(C(=O)O)CC[C@]3(C)[C@H](CC[C@@H]4[C@@]5(C)CCC(=O)C(C)(C)[C@@H]5CC[C@]43C)[C@@H]12 | 35.1 µM | 104%
17 | C=C(C)[C@@H]1CC[C@]2(C(=O)O[C@@H]3O[C@H](CO)[C@@H](O)[C@H](O)[C@H]3O)CC[C@]3(C)[C@H](CC[C@@H]4[C@@]5(C)CCC(=O)C(C)(C)[C@@H]5C[C@H](O)[C@]43C)[C@@H]12 | 4.69 µM | 101%
18 | CC(=O)OC[C@@H](C)[C@@H]1CC[C@]2(C(=O)O)CC[C@]3(C)[C@H](CC[C@@H]4[C@@]5(C)CCC(=O)C(C)(C)[C@@H]5C[C@H](O)[C@]43C)[C@@H]12 | 66.3 µM | 98.8%
19 | C=C(C)[C@@H]1CC[C@]2(C(=O)O)CC[C@]3(C)[C@H](CC[C@@H]4[C@@]5(C)CCC(=O)C(C)(C)[C@@H]5C[C@H](OC(C)=O)[C@]43C)[C@@H]12 | 10.3 µM | 102%
20 | C=C(C)[C@@H]1CC[C@]2(C(=O)O)CC[C@]3(C)[C@H](CC[C@@H]4[C@@]5(C)C[C@@H](O)C(=O)C(C)(C)[C@@H]5C[C@H](O)[C@]43C)[C@@H]12 | 64.8 µM | 106%
21 | C=C(COO)[C@@H]1CC[C@]2(C(=O)O)CC[C@]3(C)[C@H](CC[C@@H]4[C@@]5(C)CCC(=O)C(C)(C)[C@@H]5CC[C@]43C)[C@@H]12 | 24.8 µM | 101%
22 | C=C(C)[C@@H]1CC[C@]2(C(=O)O)CC[C@]3(C)[C@H](CC[C@@H]4[C@@]5(C)CCC(=O)C(C)(C)[C@@H]5CC[C@]43C)[C@@H]12 [BETUNOLIC ACID] | 60.7 µM | 102%
23 | CNC(=N)NCCC[C@H](N)C(=O)O [TILARGININE] | 21.4 µM | 110%
